Results taken from patent publication US20230278972A1, “SUBSTITUTED HALOALKYL SULFONANILIDE HERBICIDES” (FMC Corporation, priority 2020, published 2023).

Experiments:
Format in all cases: in vivo
corn (Zea mays) = experiment: Test A postemergence, corn; settings: Postemergence, 0 to 100 scale (0 no effect, 100 complete control)
Summary of the method: (§1)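 Postemergence ratings come from foliar sprays onto one- to two-leaf plants of 2 to 10 cm grown in loam/sand; preemergence ratings come from a directed spray onto the soil of newly seeded pots. Formulation was a surfactant-containing non-phytotoxic solvent blend.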

[1] = tested on: Ryegrass, Italian (Italian ryegrass, Lolium multiflorum); experiment: Test A preemergence, Ryegrass, Italian; settings: Preemergence; for Ryegrass, Italian plant response rating: visual injury on 0 to 100 scale (0 no effect, 100 complete control), approximately 10 days; for Plant response rating, Ryegrass, Italian: 0 to 100 scale (0 no effect, 100 complete control)
Summary of the method: as §1

[2] = tested on: barnyardgrass (Echinochloa crus-galli); experiment: Test A postemergence, barnyardgrass; settings: Postemergence, 0 to 100 scale (0 no effect, 100 complete control)
Summary of the method: (§2)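 Seeds are sown in loam mixed with sand and sprayed on the soil surface right after planting for the preemergence test. Postemergence pots are sprayed once seedlings reach 2 to 10 cm at the one- to two-leaf stage. The same surfactant-containing, non-phytotoxic solvent formulation serves both.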

[3] = tested on: galium (catchweed bedstraw, Galium aparine); experiment: Test A postemergence, galium; settings: Postemergence, 0 to 100 scale (0 no effect, 100 complete control)
Summary of the method: as §2

[4] = tested on: pigweed (Amaranthus retroflexus); experiment: Test A preemergence, pigweed; settings: for Pigweed plant response rating: visual injury on 0 to 100 scale (0 no effect, 100 complete control), approximately 10 days; for Plant response rating, Pigweed: 0 to 100 scale (0 no effect, 100 complete control)
Summary of the method: as §2

[5] = tested on: ragweed (common ragweed, Ambrosia artemisiifolia); experiment: Test A postemergence, ragweed; settings: Postemergence, 0 to 100 scale (0 no effect, 100 complete control)
Summary of the method: as §1

[6] = tested on: Ryegrass, Italian (Italian ryegrass, Lolium multiflorum); experiment: Test A postemergence, Ryegrass, Italian; settings: Postemergence, 0 to 100 scale (0 no effect, 100 complete control)
Summary of the method: as §1

[7] = tested on: blackgrass (Alopecurus myosuroides); experiment: Test A postemergence, blackgrass; settings: Postemergence, 0 to 100 scale (0 no effect, 100 complete control)
Summary of the method: as §1

[8] = tested on: Foxtail, Giant (giant foxtail, Setaria faberi); experiment: Test A postemergence, Foxtail, Giant; settings: Postemergence, 0 to 100 scale (0 no effect, 100 complete control)
Summary of the method: as §1

[9] = tested on: barnyardgrass (Echinochloa crus-galli); experiment: Test A preemergence, barnyardgrass; settings: Preemergence; for Barnyardgrass plant response rating: visual injury on 0 to 100 scale (0 no effect, 100 complete control), approximately 10 days; for Plant response rating, Barnyardgrass: 0 to 100 scale (0 no effect, 100 complete control)
Summary of the method: as §1

[10] = tested on: pigweed (Amaranthus retroflexus); experiment: Test A postemergence, pigweed; settings: Postemergence, 0 to 100 scale (0 no effect, 100 complete control)
Summary of the method: as §1

[11] = tested on: wheat (Triticum aestivum); experiment: Test A postemergence, wheat; settings: Postemergence, 0 to 100 scale (0 no effect, 100 complete control)
Summary of the method: as §2

[12] = tested on: ragweed (common ragweed, Ambrosia artemisiifolia); experiment: Test A preemergence, ragweed; settings: Preemergence; for Ragweed plant response rating: visual injury on 0 to 100 scale (0 no effect, 100 complete control), approximately 10 days; for Plant response rating, Ragweed: 0 to 100 scale (0 no effect, 100 complete control)
Summary of the method: as §1

[13] = tested on: Foxtail, Giant (giant foxtail, Setaria faberi); experiment: Test A preemergence, Foxtail, Giant; settings: Preemergence; for Foxtail, Giant plant response rating: visual injury on 0 to 100 scale (0 no effect, 100 complete control), approximately 10 days; for Plant response rating, Foxtail, Giant: 0 to 100 scale (0 no effect, 100 complete control)
Summary of the method: as §1

kochia (Bassia scoparia) [14] = experiment: Test A postemergence, kochia; settings: Postemergence, 0 to 100 scale (0 no effect, 100 complete control)
Summary of the method: as §1

kochia (Bassia scoparia) [15] = experiment: Test A preemergence, kochia; settings: Preemergence; for Kochia plant response rating: visual injury on 0 to 100 scale (0 no effect, 100 complete control), approximately 10 days; for Plant response rating, Kochia: 0 to 100 scale (0 no effect, 100 complete control)
Summary of the method: as §1

[16] = 125 g ai/ha, visual injury approx. 10 days
[17] = 500 g ai/ha, visual injury, approx. 10 days
[18] = 500 g ai/ha, visual injury vs untreated controls after approx. 10 days
[19] = 125 g ai/ha, visual injury, approx. 10 days
[20] = 31 g ai/ha, visual injury, approx. 10 days

Cc1cc(C)c(N(S(=O)(=O)C(F)(F)F)S(=O)(=O)C(F)(F)F)cc1-c1cn(C)c(=O)n(C)c1=O [Compound 42]
Plant response rating, Corn (corn (Zea mays); [16]): 0
Plant response rating, Corn (corn (Zea mays); [17]): 60
Ryegrass, Italian plant response rating ([1]; 125 g ai/ha): 100
Plant response rating, Ryegrass, Italian ([1]; 500 g ai/ha): 100
Plant response rating, Barnyardgrass [2, 16]: 70
Plant response rating, Barnyardgrass [2, 17]: 80
Plant response rating, Galium [3, 16]: 50
Plant response rating, Galium [3, 17]: 60
Pigweed plant response rating ([4]; 125 g ai/ha): 40
Plant response rating, Pigweed ([4]; 500 g ai/ha): 80
Plant response rating, Ragweed [5, 16]: 40
Plant response rating, Ragweed [5, 17]: 80
Plant response rating, Ryegrass, Italian [6, 16]: 70
Plant response rating, Ryegrass, Italian [6, 17]: 80
Plant response rating, Blackgrass [7, 16]: 40
Plant response rating, Blackgrass [7, 17]: 90
Plant response rating, Foxtail, Giant [8, 16]: 90
Plant response rating, Foxtail, Giant [8, 17]: 90
Barnyardgrass plant response rating ([9]; 125 g ai/ha): 90
Plant response rating, Barnyardgrass ([9]; 500 g ai/ha): 100
Plant response rating, Pigweed [10, 16]: 40
Plant response rating, Pigweed [10, 17]: 100
Plant response rating, Wheat [11, 16]: 70
Plant response rating, Wheat [11, 17]: 70
Ragweed plant response rating ([12]; 125 g ai/ha): 30
Plant response rating, Ragweed ([12]; 500 g ai/ha): 80
Foxtail, Giant plant response rating ([13]; 125 g ai/ha): 100
Plant response rating, Foxtail, Giant ([13]; 500 g ai/ha): 100
Plant response rating, Kochia (kochia (Bassia scoparia) [14]; [16]): 20
Plant response rating, Kochia (kochia (Bassia scoparia) [14]; [17]): 30
Kochia plant response rating (kochia (Bassia scoparia) [15]; 125 g ai/ha): 40
Plant response rating, Kochia (kochia (Bassia scoparia) [15]; 500 g ai/ha): 70

Cc1cc(C)c(C(=O)N2CCC3(CCCC3)CC2)cc1NS(=O)(=O)C(F)(F)F [Compound 223]
Plant response rating, Corn (corn (Zea mays); 125 g ai/ha): 0
Corn plant response rating (corn (Zea mays); [18]): 0
Plant response rating, Ryegrass, Italian [1, 19]: 30
Plant response rating, Ryegrass, Italian ([1]; 500 g ai/ha): 80
Plant response rating, Barnyardgrass ([2]; 125 g ai/ha): 10
Barnyardgrass plant response rating [2, 18]: 20
Plant response rating, Galium ([3]; 125 g ai/ha): 40
Galium plant response rating [3, 18]: 40
Plant response rating, Pigweed [4, 19]: 10
Plant response rating, Pigweed ([4]; 500 g ai/ha): 90
Plant response rating, Ragweed ([5]; 125 g ai/ha): 0
Ragweed plant response rating [5, 18]: 20
Plant response rating, Ryegrass, Italian ([6]; 125 g ai/ha): 0
Ryegrass, Italian plant response rating [6, 18]: 0
Plant response rating, Blackgrass ([7]; 125 g ai/ha): 20
Blackgrass plant response rating [7, 18]: 0
Plant response rating, Foxtail, Giant ([8]; 125 g ai/ha): 0
Foxtail, Giant plant response rating [8, 18]: 0
Plant response rating, Barnyardgrass [9, 19]: 30
Plant response rating, Barnyardgrass ([9]; 500 g ai/ha): 50
Plant response rating, Pigweed ([10]; 125 g ai/ha): 40
Pigweed plant response rating [10, 18]: 30
Plant response rating, Wheat ([11]; 125 g ai/ha): 0
Wheat plant response rating [11, 18]: 0
Plant response rating, Ragweed [12, 19]: 0
Plant response rating, Ragweed ([12]; 500 g ai/ha): 50
Plant response rating, Foxtail, Giant [13, 19]: 60
Plant response rating, Foxtail, Giant ([13]; 500 g ai/ha): 100
Plant response rating, Kochia (kochia (Bassia scoparia) [14]; 125 g ai/ha): 0
Kochia plant response rating (kochia (Bassia scoparia) [14]; [18]): 0
Plant response rating, Kochia (kochia (Bassia scoparia) [15]; [19]): 0
Plant response rating, Kochia (kochia (Bassia scoparia) [15]; 500 g ai/ha): 20

COC1CCCN(C(=O)c2cc(N(C(=O)C(C)C)S(=O)(=O)C(F)(F)F)c(C)cc2C)C1 (centres unmarked) [Compound 91]
Plant response rating, Corn (corn (Zea mays); 31 g ai/ha): 0
Plant response rating, Corn (corn (Zea mays); [16]): 0
Plant response rating, Ryegrass, Italian [1, 20]: 30
Ryegrass, Italian plant response rating ([1]; 125 g ai/ha): 50
Plant response rating, Barnyardgrass ([2]; 31 g ai/ha): 0
Plant response rating, Barnyardgrass [2, 16]: 0
Plant response rating, Galium ([3]; 31 g ai/ha): 70
Plant response rating, Galium [3, 16]: 70
Plant response rating, Pigweed [4, 20]: 60
Pigweed plant response rating ([4]; 125 g ai/ha): 100
Plant response rating, Ragweed ([5]; 31 g ai/ha): 0
Plant response rating, Ragweed [5, 16]: 40
Plant response rating, Ryegrass, Italian ([6]; 31 g ai/ha): 0
Plant response rating, Ryegrass, Italian [6, 16]: 10
Plant response rating, Blackgrass ([7]; 31 g ai/ha): 0
Plant response rating, Blackgrass [7, 16]: 0
Plant response rating, Foxtail, Giant ([8]; 31 g ai/ha): 0
Plant response rating, Foxtail, Giant [8, 16]: 10
Plant response rating, Barnyardgrass [9, 20]: 0
Barnyardgrass plant response rating ([9]; 125 g ai/ha): 90
Plant response rating, Pigweed ([10]; 31 g ai/ha): 0
Plant response rating, Pigweed [10, 16]: 40
Plant response rating, Wheat ([11]; 31 g ai/ha): 10
Plant response rating, Wheat [11, 16]: 60
Plant response rating, Ragweed [12, 20]: 0
Ragweed plant response rating ([12]; 125 g ai/ha): 20
Plant response rating, Foxtail, Giant [13, 20]: 20
Foxtail, Giant plant response rating ([13]; 125 g ai/ha): 100
Plant response rating, Kochia (kochia (Bassia scoparia) [14]; 31 g ai/ha): 10
Plant response rating, Kochia (kochia (Bassia scoparia) [14]; [16]): 10
Plant response rating, Kochia (kochia (Bassia scoparia) [15]; [20]): 0
Kochia plant response rating (kochia (Bassia scoparia) [15]; 125 g ai/ha): 60

CCn1cc(-c2cc(NS(=O)(=O)C(F)(F)F)c(C)cc2C)c(=O)n(C)c1=O [Compound 32]
Plant response rating, Corn (corn (Zea mays); [16]): 10
Plant response rating, Corn (corn (Zea mays); [17]): 80
Ryegrass, Italian plant response rating ([1]; 125 g ai/ha): 100
Plant response rating, Ryegrass, Italian ([1]; 500 g ai/ha): 100
Plant response rating, Barnyardgrass [2, 16]: 90
Plant response rating, Barnyardgrass [2, 17]: 90
Plant response rating, Galium [3, 16]: 70
Plant response rating, Galium [3, 17]: 90
Pigweed plant response rating ([4]; 125 g ai/ha): 20
Plant response rating, Pigweed ([4]; 500 g ai/ha): 60
Plant response rating, Ragweed [5, 16]: 30
Plant response rating, Ragweed [5, 17]: 60
Plant response rating, Ryegrass, Italian [6, 16]: 80
Plant response rating, Ryegrass, Italian [6, 17]: 90
Plant response rating, Blackgrass [7, 16]: 90
Plant response rating, Blackgrass [7, 17]: 90
Plant response rating, Foxtail, Giant [8, 16]: 90
Plant response rating, Foxtail, Giant [8, 17]: 90
Barnyardgrass plant response rating ([9]; 125 g ai/ha): 100
Plant response rating, Barnyardgrass ([9]; 500 g ai/ha): 100
Plant response rating, Pigweed [10, 16]: 10
Plant response rating, Pigweed [10, 17]: 20
Plant response rating, Wheat [11, 16]: 70
Plant response rating, Wheat [11, 17]: 70
Ragweed plant response rating ([12]; 125 g ai/ha): 0
Plant response rating, Ragweed ([12]; 500 g ai/ha): 50
Foxtail, Giant plant response rating ([13]; 125 g ai/ha): 100
Plant response rating, Foxtail, Giant ([13]; 500 g ai/ha): 100
Plant response rating, Kochia (kochia (Bassia scoparia) [14]; [16]): 20
Plant response rating, Kochia (kochia (Bassia scoparia) [14]; [17]): 40
Kochia plant response rating (kochia (Bassia scoparia) [15]; 125 g ai/ha): 60
Plant response rating, Kochia (kochia (Bassia scoparia) [15]; 500 g ai/ha): 90
